Measurements taken from US5373040A, “Amorphous solid modification of 2,2',2"-nitrilo[triethyl-tris-(3,3',5,5'-tetra-tert-butyl-1,1'-biphenyl- 2,2'-diyl)phosphite]” (Ciba-Geigy Corporation, priority 1993, dated 1994).

Assays:
[1] = Process stabilization of polypropylene: yellowness index of plaques (ASTM D1925); conditions: in the presence of a representative phenolic antioxidant; versus prior art compound of U.S. Pat. No. 4,318,845
Source text: The test additives are incorporated into the polypropylene by dry blending or, when the additive is a liquid, using a minimum amount of methylene chloride solvent. The solvent is then removed by evaporation under reduced pressure.

[2] = Stabilization of poly(ethylene terephthalate): intrinsic viscosity; conditions: 0.5% by weight, five extrusion passes; versus PET containing no stabilizer
Procedure: Poly(ethylene terephthalate), PET (KODAPAR® 7352, Eastman Chemical) is tumble blended with 0.5% by weight of the compound of instant Example 1. The polymer is then extruded and pelletized at 500° F. (260°C.) in a MPM 1" (2.54 cm) single screw extruder. The pellets are collected, redried and reextruded 5 times. Pellets are collected from each extrusion pass and the polymer intrinsic viscosity measured.

[3] = Stabilization of poly(butylene terephthalate): intrinsic viscosity; conditions: 0.3% by weight; second pass extrudate and injection molded plaques; versus PBT containing no stabilizer
Procedure: (§1) Poly(butylene terephthalate), PBT (RYNITE® 9160, DuPont) is tumble blended with 0.3% by weight of the compound of instant Example 1. The polymer is then extruded and pelletized at 260° C. A portion of the collected pellets are reextruded under the same conditions for a second pass. The remainder from the first extrusion is injection molded into 2"×2"×125 mil (5.08 cm×5.08 cm×3.175 mm) plaques at 540° F. (282° C.) with a 100° C. mold temperature in a BOY 30M molder. Intrinsic viscosities of the second pass extrudate and the injection molded plaques are determined.

[4] = Stabilization of poly(butylene terephthalate): yellowness index; conditions: 0.3% by weight; versus control unstabilized PBT
Procedure: as §1
The plaques are measured for yellowness index (color) using ASTM D 1925-70.

[5] = Solubility in lubricating oil (Mobil BB oil); format: physicochemical
Procedure: The following experiments are performed to determine the solubility of amorphous compound A and crystalline compound B in Mobil BB oil. Both compounds have the same uniform particle sizes (40-70 micron).
Compound A=amorphous form of 2,2',2"-nitrilo-[triethyl-tris-(3,3',5,5'-tetra-tert-butyl-1,1'-biphenyl-2,2'-diyl) phosphite], prepared in accordance with instant Example 1.
Compound B=crystalline form of 2,2',2"-nitrilo[triethyl-tris-(3,3',5,5'-tetra-tert-butyl-1,1'-biphenyl-2,2'-diyl) phosphite], prepared in accordance with Example 4 of U.S. Pat. No. 4,318,845.
Into a vial of 980 mg. of Mobil BB oil is added 20 mg. of compound A at ambient temperature. For the first 30 minutes, the vial is shaken every 10 minutes. After the initial 30 minutes, the vial is left standing.
Into a vial of 980 mg. of Mobil BB oil is added 20 mg. of compound B at ambient temperature. For the first 30 minutes, the vial is shaken every 10 minutes. After the initial 30 minutes, the vial is left standing.
Into a vial of 980 mg. of Mobil BB oil is added 20 mg. of compound A at ambient temperature. The vial is then placed into a 60° C. oil bath.
Into a vial of 980 mg. of Mobil BB oil is added 20 mg. of compound B at ambient temperature. The vial is then placed into a 60° C. oil bath.
Into a vial of 990 mg. of Mobil BB oil is added 10 mg. of compound A at ambient temperature. […] is shaken every 10 minutes. After the initial 30 minutes, the vial is left standing.
Into a vial of 990 mg. of Mobil BB oil is added 10 mg. of compound B at ambient temperature. […] is shaken every 10 minutes. After the initial 30 minutes, the vial is left standing.

[6] = Apparent bulk density (ASTM D-1895); format: physicochemical
Procedure: The apparent bulk density of the solids is measured according to the method of ASTM D-1895 (79). A higher apparent bulk density allows for a greater mass per unit volume which affords advantages in packaging of the solid product, such as lower costs for the packaging material, less storage space is required, etc.

[7] = Solubility in LLDPE film by diffusion-in, X-ray fluorescence; format: physicochemical
Procedure: Experiments are carried out to determine the solubility of the instant compound into linear low density polyethylene (LLDPE) films at 20° C., 40° C. and 60° C. by diffusion-in of a relatively homogeneous particle size (<70 microns) of the test sample suspended in silicon oil.
Each sample is carefully ground with a mortar and pestle and the particle size below 70 microns is separated by sieving with a 200 mesh screen. The powder is then suspended in silicon oil (polydimethylsiloxane, L-45, Union Carbide Chemicals) at a concentration of approximately 38% (wt/wt). A few drops of this suspension is placed on a 10 mil (0.254 mm) thick, 2"×2" (5.08 cm×5.08 cm) compression molded film and a second film of the same dimension is placed on top. The films are gently pressed together so that the suspension forms a thin liquid layer between the polymer films. Excess suspension is removed and the procedure is repeated till a stack of eight films (six films for evaluation) are prepared. The stack is then placed between two 2.5"×2.5" (6.35 cm×6.35 cm) ceramic tiles and wrapped in aluminum foil and held together with a G-clamp. Each stack is aged at 20° C., 40° C. and 60° C. under a nitrogen atmosphere. At specified intervals, a single film is removed from the stack and the excess suspension is washed from the film with hexane. The film is then analyzed by X-ray fluorescence for total phosphorus content. LLDPE containing 0, 1000 ppm and 2000 ppm of the test compound are used as standard controls for this X-ray fluorescence method.

[8] = compared to the prior art crystalline form

## CC(C)(C)c1cc(C(C)(C)C)c2op(OCCN(CCOp3oc4c(C(C)(C)C)cc(C(C)(C)C)cc4c4cc(C(C)(C)C)cc(C(C)(C)C)c4o3)CCOp3oc4c(C(C)(C)C)cc(C(C)(C)C)cc4c4cc(C(C)(C)C)cc(C(C)(C)C)c4o3)oc3c(C(C)(C)C)cc(C(C)(C)C)cc3c2c1 [Example 1, 2,2',2"-nitrilo[triethyl-tris-(3,3',5,5'-tetra-tert-butyl-1,1'-biphenyl-2,2'-diyl)phosphite]]
[1]
  stabilizing polypropylene against discoloration (change in yellowness index): equal or more effective
[2]
  retention of original intrinsic viscosity: higher retention of original intrinsic viscosity
[3]
  retention of intrinsic viscosity value: better retention of intrinsic viscosity value
[4]
  yellowness index (color): lower YI values (less discoloration)
[5]; 1% by weight in Mobil BB oil, RT, 1.5 hrs., listed as A
  Observation: Clear solution
[5]; 1% by weight in Mobil BB oil, RT, 1.5 hrs., listed as compound A
  Observation: clear solution
[5]; 1% by weight in Mobil BB oil, RT, listed as A
  Time to clear solution: 1.5 h
[5]; 1% by weight in Mobil BB oil, RT, listed as compound A
  Time to clear solution: 1.5 h
[5]; 2% by weight in Mobil BB oil, 60° C. oil bath, 10 min., listed as A
  Observation: Clear solution
[5]; 2% by weight in Mobil BB oil, 60° C. oil bath, 10 min., listed as compound A
  Observation: clear solution
[5]; 2% by weight in Mobil BB oil, 60° C. oil bath, listed as A
  Time to clear solution: 0.167 h
[5]; 2% by weight in Mobil BB oil, 60° C. oil bath, listed as compound A
  Time to clear solution: 0.167 h
[5]; 2% by weight in Mobil BB oil, RT, 2.5 hrs., listed as A
  Observation: Clear solution
[5]; 2% by weight in Mobil BB oil, RT, 2.5 hrs., listed as compound A
  Observation: clear solution
[5]; 2% by weight in Mobil BB oil, RT, listed as A
  Time to clear solution: 2.5 h
[5]; 2% by weight in Mobil BB oil, RT, listed as compound A
  Time to clear solution: 2.5 h
[5]; [8]
  rate of dissolving in lubricants: faster rate of dissolving
  rate of dissolving in organic materials, such as in polymers and in lubricants: faster rate of dissolving
  solubility in lubricants: better solubility
  solubility in organic materials, such as in polymers and in lubricants: better solubility
[6]
  Bulk Density: 0.49 g/mL
[7]; interval 15 (time unit not given)
  Solubility of Compound in LLDPE at 20° C.: 7200 ppm
[7]; interval 28 (time unit not given)
  Solubility of Compound in LLDPE at 20° C.: 5100 ppm
[7]; interval 35 (time unit not given)
  Solubility of Compound in LLDPE at 20° C.: 3800 ppm
[7]; interval 44 (time unit not given)
  Solubility of Compound in LLDPE at 20° C.: 4700 ppm
[7]; interval 10 (time unit not given)
  Solubility of Compound in LLDPE at 40° C.: 2500 ppm
[7]; interval 17 (time unit not given)
  Solubility of Compound in LLDPE at 40° C.: 2100 ppm
[7]; interval 25 (time unit not given)
  Solubility of Compound in LLDPE at 40° C.: 2400 ppm
[7]; interval 34 (time unit not given)
  Solubility of Compound in LLDPE at 40° C.: 1700 ppm
[7]; interval 40 (time unit not given)
  Solubility of Compound in LLDPE at 40° C.: 1900 ppm
[7]; interval 47 (time unit not given)
  Solubility of Compound in LLDPE at 40° C.: 2200 ppm
[7]; third section, interval 6 (time unit not given)
  Solubility of Compound in LLDPE at 20° C.: 3400 ppm
[7]; third section, interval 14 (time unit not given)
  Solubility of Compound in LLDPE at 20° C.: 4000 ppm
[7]; third section, interval 22 (time unit not given)
  Solubility of Compound in LLDPE at 20° C.: 4500 ppm
[7]; third section, interval 28 (time unit not given)
  Solubility of Compound in LLDPE at 20° C.: 3800 ppm
[7]; third section, interval 37 (time unit not given)
  Solubility of Compound in LLDPE at 20° C.: 4100 ppm
[7]; versus prior art compound of Example 4 of U.S. Pat. No. 4,318,845
  solubility in LLDPE: far more soluble
